Earlier results, collected in US20040110828A1, “Tetrahydrocannabinol compositions and methods of manufacture and use thereof” (priority 2002, published 2004).

## CCCCCc1cc(O)c2c(c1)OC(C)(C)[C@@H]1CCC(C)=C[C@@H]21 [Delta 9-THC, Delta 9-tetrahydrocannabinol]
IV administration, slow phase after the initial distribution (first 30 minutes)
  half-life of blood level: ≥ 19 h
One week after an IV injection of a single dose
  compound and its metabolites remaining in the body: 25-30%
